Reference: article PMC11855827, “High-Throughput Screening of Five Compound Libraries for Anthelmintic Activity and Toxicity Leads to the Discovery of Two Flavonoid Compounds” (International Journal of Molecular Sciences, 2025)
Where “and” joins values, the source holds several entries; their conditions need not be identical. Equal entries are not always repeated. *1 amine or outer side, *2 acyl side, *3 side chain or, on linkers, in order; H or OH if unused. Where a SMILES comes first, the peptide text is derived from it. Bridges are numbered along the chain shown (N, C = ends). [ ]: non-standard residue; d: D form. The star is where a group is joined. hTyr(3S-OH,4S-OH,3'-OSO3H) = N[C@H](C(=O)O)[C@H](O)[C@@H](O)c1ccc(O)c(OS(=O)(=O)O)c1; Orn(4R-OH,5R-OH) = O=C([C@H](C[C@@H](O)[C@@H](O)N[*:3])N[*:1])[*:2]; Pro(3S-OH,4S-Me) = C[C@H]1CN[C@H](C(=O)O)[C@H]1O; X1 = CCCCCOc1ccc(-c2cc(-c3ccc(C(=O)*)cc3)no2)cc1; Gln(3R-OH) = NC(=O)C[C@@H](O)[C@H](N)C(=O)O; Hyp = O=C(O)[C@@H]1C[C@@H](O)CN1

Test system: C. elegans
Settings: Table S2, C. elegans SS assay, 110 μM, averages of 4 data points

COc1ccc(-c2coc3c([C@@H]4O[C@H](CO)[C@@H](O)[C@H](O)[C@H]4O)c(O)ccc3c2=O)cc1 [4'‐Methoxypuerarin]
Percentage of motility inhibition 0 h: 14%
Percentage of motility inhibition 24 h: 3%

C[C@]12C[C@@H](O)[C@@H]3C[C@@]1(O[C@@H]1O[C@H](CO)[C@@H](O)[C@H](O)[C@H]1O)[C@@]3(COC(=O)c1ccccc1)C(=O)O2 [Albiflorin]
Percentage of motility inhibition 0 h: 0%
Percentage of motility inhibition 24 h: 2%

Engeletin
Percentage of motility inhibition 0 h: 11%
Percentage of motility inhibition 24 h: 9%

Cn1c(=O)c2c(ncn2CC(O)CO)n(C)c1=O (centres unmarked) [Diphylline]
Percentage of motility inhibition 0 h: 66%
Percentage of motility inhibition 24 h: 31%

Bulleyaconitine A
Percentage of motility inhibition 0 h: 26%
Percentage of motility inhibition 24 h: 26%

C=C[C@H]1CN2CC[C@H]1C[C@H]2[C@H](O)c1ccnc2ccc(OC)cc12.Cl.O.O [Quinine (hydrochloride dihydrate)]
Percentage of motility inhibition 24 h: 8%

COc1c(/C=C/C(=O)c2ccc(O)cc2)ccc(O)c1CC=C(C)C [Licochal cone C]
Percentage of motility inhibition 0 h: 0%
Percentage of motility inhibition 24 h: 8%

C[C@H](CC[C@@H](O[C@@H]1O[C@H](CO[C@@H]2O[C@H](CO)[C@@H](O)[C@H](O)[C@H]2O)[C@@H](O)[C@H](O)[C@H]1O)C(C)(C)O)[C@H]1CC[C@@]2(C)[C@@H]3CC=C4[C@@H](CC[C@H](O[C@@H]5O[C@H](CO[C@@H]6O[C@H](CO)[C@@H](O)[C@H](O)[C@H]6O)[C@@H](O)[C@H](O)[C@H]5O)C4(C)C)[C@]3(C)[C@H](O)C[C@]12C [Mogroside IV-A]
Percentage of motility inhibition 0 h: 0%
Percentage of motility inhibition 24 h: 0%

NCCCC[C@H](N)C(=O)O.O [L-Lysine hydrate]
Percentage of motility inhibition 0 h: 8%
Percentage of motility inhibition 24 h: 2%

CC(C)(O)[C@@H]1CC[C@](C)([C@H]2[C@@H](O)C[C@@]3(C)[C@@H]4C[C@H](O[C@@H]5O[C@H](CO)[C@@H](O)[C@H](O)[C@H]5O)[C@H]5C(C)(C)[C@@H](O[C@@H]6OC[C@@H](O)[C@H](O)[C@H]6O)CC[C@@]56C[C@@]46CC[C@]23C)O1 [Astragaloside IV]
Percentage of motility inhibition 0 h: 10%
Percentage of motility inhibition 24 h: 0%

CC(C)OC(=O)OCOP(=O)(CO[C@H](C)Cn1cnc2c(N)ncnc21)OCOC(=O)OC(C)C [Tenofovir (Disoproxil)]
Percentage of motility inhibition 0 h: 23%
Percentage of motility inhibition 24 h: 7%

CC1(C)S[C@@H]2[C@H](NC(=O)[C@H](N)c3ccc(O)cc3)C(=O)N2[C@H]1C(=O)[O-].[Na+] [Amoxicillin (sodium)]
Percentage of motility inhibition 0 h: 29%
Percentage of motility inhibition 24 h: 10%

(‐)‐Gallocatechin gallate
Percentage of motility inhibition 0 h: 60%
Percentage of motility inhibition 24 h: 5%

C[C@@H]1CC[C@@]2(NC1)O[C@H]1C[C@H]3[C@@H]4CC=C5C[C@@H](O[C@@H]6O[C@H](CO)[C@@H](O[C@@H]7O[C@@H](C)[C@H](O)[C@@H](O)[C@H]7O)[C@H](O)[C@H]6O)CC[C@]5(C)[C@H]4CC[C@]3(C)[C@H]1[C@@H]2C [Khasianine]
Percentage of motility inhibition 0 h: 19%
Percentage of motility inhibition 24 h: 10%

Cl.NCC(O)c1ccc(O)c(O)c1 (centres unmarked) [Norepinephrine (hydrochloride)]
Percentage of motility inhibition 0 h: 23% and 12%

CC1(C)C[C@H]2C3=CC[C@@H]4[C@@]5(C)CC[C@H](O)[C@@](C)(CO)[C@@H]5CC[C@@]4(C)[C@]3(C)C[C@H](O)[C@@]2(CO)[C@@H](O)[C@@H]1O [Gymnemagenin]
Percentage of motility inhibition 0 h: 0%
Percentage of motility inhibition 24 h: 52%

CC(N)C12CC3CC(CC(C3)C1)C2.Cl (centres unmarked) [Rimantadine (hydrochloride)]
Percentage of motility inhibition 0 h: 45%
Percentage of motility inhibition 24 h: 25%

CO[C@]1(CC[C@@H](C)CO[C@@H]2O[C@H](CO)[C@@H](O)[C@H](O)[C@H]2O)O[C@H]2C[C@H]3[C@@H]4CC=C5C[C@@H](O[C@@H]6O[C@H](CO)[C@@H](O)[C@H](O[C@@H]7O[C@H](CO)[C@@H](O)[C@H](O)[C@H]7O)[C@H]6O[C@@H]6O[C@@H](C)[C@H](O)[C@@H](O)[C@H]6O)CC[C@]5(C)[C@H]4CC[C@]3(C)[C@H]2[C@@H]1C [Methyl protogracillin]
Percentage of motility inhibition 0 h: 0%
Percentage of motility inhibition 24 h: 15%

C=C[C@@H]1C2=CCOC(=O)C2=CO[C@H]1O[C@@H]1O[C@H](CO[C@@H]2O[C@H](CO)[C@@H](O)[C@H](O)[C@H]2O)[C@@H](O)[C@H](O)[C@H]1O [6'-O-beta-D-Glucosylgentiopicroside]
Percentage of motility inhibition 0 h: 34%
Percentage of motility inhibition 24 h: 15%

CC(=O)C1CCC2C3CC=C4CC(OS(=O)(=O)O)CCC4(C)C3CCC12C (centres unmarked) [Pregnenolone monosulfate]
Percentage of motility inhibition 0 h: 0%
Percentage of motility inhibition 24 h: 4%

C=C1C(=O)O[C@H]2[C@H]1CC[C@]1(C)O[C@@]13CC[C@@](C)(O)[C@H]23 [Epoxymicheliolide]
Percentage of motility inhibition 0 h: 16%
Percentage of motility inhibition 24 h: 24%

CC(C)=CCCC(C)(OC1OC(CO)C(O)C(O)C1O)C1CCC2(C)C1C(O)CC1C3(C)CC(O)C(OC4OC(CO)C(O)C(O)C4OC4OC(CO)C(O)C(O)C4O)C(C)(C)C3CCC12C (centres unmarked) [Gypenoside XLVI]
Percentage of motility inhibition 0 h: 1%
Percentage of motility inhibition 24 h: 2%

O=Cc1ccc(O[C@@H]2O[C@H](CO)[C@@H](O)[C@@H](O)[C@H]2O)cc1 [Helicid]
Percentage of motility inhibition 0 h: 11%
Percentage of motility inhibition 24 h: 4%

Escin
Percentage of motility inhibition 24 h: 8% and 6%

O=C(/C=C/c1ccc(O)c(O)c1)OC1(C(=O)O)C[C@@H](O)C(O)[C@H](O)C1 (some centres unmarked) [1‐Caffeoylquinic acid]
Percentage of motility inhibition 0 h: 24%
Percentage of motility inhibition 24 h: 0%

CNc1ccccc1C(=O)OC [Methyl N‐methylanthranilate]
Percentage of motility inhibition 0 h: 30%
Percentage of motility inhibition 24 h: 4%

CC(=O)O[C@@H]1C[C@]23C[C@@](C)(O)[C@H](CC[C@H]2[C@@](C)(O)[C@@H]2[C@@H]4O[C@@H]4C(C)(C)[C@@]12O)[C@H]3O [Rhodojaponin II]
Percentage of motility inhibition 0 h: 4%
Percentage of motility inhibition 24 h: 8%

C/C1=C2/[N-][C@H]([C@H](CC(N)=O)[C@@]2(C)CCC(=O)NC[C@@H](C)OP(=O)([O-])O[C@H]2[C@@H](O)[C@@H](n3cnc4cc(C)c(C)cc43)O[C@@H]2CO)[C@]2(C)N=C(/C(C)=C3N=C(/C=C4N=C1[C@@H](CCC(N)=O)C\4(C)C)[C@@H](CCC(N)=O)[C@]\3(C)CC(N)=O)[C@@H](CCC(N)=O)[C@]2(C)CC(N)=O.[CH2-][C@H]1O[C@@H](n2cnc3c(N)ncnc32)[C@H](O)[C@@H]1O.[Co] [Adenosylcobalamin]
Percentage of motility inhibition 0 h: 20%
Percentage of motility inhibition 24 h: 22%

Xanthopterin (hydrate)
Percentage of motility inhibition 0 h: 5%
Percentage of motility inhibition 24 h: 0%

COc1cc(/C=C/C(=O)O[C@@H]2[C@H](O[C@@H]3O[C@@H](C)[C@H](O)[C@@H](O)[C@H]3O)[C@@H](O[C@@H]3O[C@@H](C)[C@H](O[C@@H]4OC[C@@H](O)[C@H](O)[C@H]4O)[C@@H](O)[C@H]3O)[C@H](OC(=O)[C@]34CCC(C)(C)C[C@H]3C3=CC[C@@H]5[C@@]6(C)C[C@H](O)[C@H](O[C@@H]7O[C@H](CO)[C@@H](O)[C@H](O)[C@H]7O)[C@@](C)(C(=O)O)[C@@H]6CC[C@@]5(C)[C@]3(CO)CC4)O[C@@H]2C)cc(OC)c1OC [Onjisaponin Z]
Percentage of motility inhibition 0 h: 4%
Percentage of motility inhibition 24 h: 21%

CN1CCC=C(C(=O)O)C1.Cl [Arecaidine (hydrochloride)]
Percentage of motility inhibition 0 h: 7%
Percentage of motility inhibition 24 h: 6%

CC(C)=CCC[C@](C)(O)[C@@H]1CC=C(C)CC1 [Levomenol]
Percentage of motility inhibition 0 h: 37%
Percentage of motility inhibition 24 h: 50%

COc1cc(/C=C/C(=O)OC[C@H]2O[C@@H](O[C@@H]3[C@@H](O)[C@H](O)[C@@H](CO)O[C@H]3c3c(OC)cc4oc(-c5ccc(O)cc5)cc(=O)c4c3O)[C@H](O)[C@@H](O)[C@@H]2O)ccc1O [6‴‐Feruloylspinosin]
Percentage of motility inhibition 0 h: 9%
Percentage of motility inhibition 24 h: 13%

CCCCCOc1ccc(-c2cc(-c3ccc(C(=O)N[C@H]4C[C@@H](O)[C@@H](O)NC(=O)[C@@H]5[C@@H](O)[C@@H](C)CN5C(=O)[C@H]([C@H](O)CC(N)=O)NC(=O)[C@H]([C@H](O)[C@@H](O)c5ccc(O)c(OS(=O)(=O)[O-])c5)NC(=O)[C@@H]5C[C@@H](O)CN5C(=O)[C@H]([C@@H](C)O)NC4=O)cc3)no2)cc1.[Na+] [Micafungin (sodium)] (X1-[Orn(4R-OH,5R-OH)]T[Hyp][hTyr(3S-OH,4S-OH,3'-OSO3H)][Gln(3R-OH)][Pro(3S-OH,4S-Me)]; lactam 1-C)
Percentage of motility inhibition 0 h: 3%
Percentage of motility inhibition 24 h: 0%

C/C=C/C1=C(C(=O)O)N2C(=O)[C@@H](NC(=O)[C@H](N)c3ccc(O)cc3)[C@H]2SC1.O [Cefprozil (monohydrate)]
Percentage of motility inhibition 0 h: 12%
Percentage of motility inhibition 24 h: 14%

COc1cc(/C=C/C(=O)O[C@H]2[C@H](O)[C@@H](CO)O[C@@]2(CO)O[C@H]2O[C@H](COC(=O)c3ccc(O)cc3)[C@@H](O)[C@H](O)[C@H]2O)cc(OC)c1OC [Tenuifoliside A]
Percentage of motility inhibition 0 h: 0%
Percentage of motility inhibition 24 h: 15%

CC(C)=CCC[C@]1(C)CC[C@]2(C)[C@H]3CC[C@@]4(C)[C@@H](CCC(=O)[C@@H]4C)[C@]3(C)CC[C@@]2(C)C1 [Shionone]
Percentage of motility inhibition 0 h: 24%
Percentage of motility inhibition 24 h: 52%

CC1OC(OC2C(Oc3cc(O)c4c(=O)cc(-c5ccc(O)cc5)oc4c3)OC(COC3OC(CO)C(O)C(O)C3O)C(O)C2O)C(O)C(O)C1O (centres unmarked) [Apigenin‐7‐O‐(2G‐rhamnosyl)gentiobioside]
Percentage of motility inhibition 0 h: 10%
Percentage of motility inhibition 24 h: 0%

CN(C)[C@@H]1C(=O)C(C(N)=O)=C(O)[C@@]2(O)C(=O)C3=C(O)c4c(O)cccc4[C@@](C)(O)[C@H]3C[C@@H]12.Cl [Tetracycline (hydrochloride)]
Percentage of motility inhibition 0 h: 26%
Percentage of motility inhibition 24 h: 11%

CN1[C@@H](CC(=O)c2ccccc2)CCC[C@H]1C[C@H](O)c1ccccc1.Cl [Lobeline (hydrochloride)]
Percentage of motility inhibition 0 h: 26%
Percentage of motility inhibition 24 h: 30%
